Results reported in patent US9303076B2, “Cell-penetrating peptides and uses thereof” (Hoffmann-La Roche Inc., priority 2010, dated 2016).

Tests used:
human Aha1 mRNA = assay: siRNA transfection screening (siAha1 vs siGL3 control, bDNA assay of Aha1/GAPDH mRNA); assay type: cell-based
Method: For the quantification of cellular mRNA levels bDNA (branched DNA) assays were performed which enable the detection of individual mRNA levels. To this end, a defined number of the cells to be analyzed was seeded into 96-well plates and allowed to attach over night. On the next day, the cells were transfected with siRNA.
After further 24 hours, the mRNA species were quantified using the QuantiGene Plex 2.0 assay kit according to the manufacturers instructions (Affymetrix Inc., Santa Clara, Calif., USA). In brief, cell lysates were transferred to a capture plate in the presence of a gene-specific probe set and incubated at 53° C. over night. After washing, the wells were sequentially incubated at 53° C. with an amplifier agent and an alkaline phosphatase (AP)-linked label probe with a washing step in between. Subsequently, the luminescent AP substrate dioxitane was added and incubated for 30 min at 53° C. Luminescence was assayed using an InfiniteF200 luminescence reader (Tecan Austria GmbH, Groding, Austria).
In order to analyze the potential CPPs for their ability to transfect siRNA into mammalian cells an increasing peptide concentration (from 1 μM to 20 μM) was employed along with a constant siRNA concentration (100 nM). This range of peptide concentrations was used as it had been shown that positively charged peptides such as TAT are internalized into cells in ranges up to 10 μM and remain in intracellular membrane compartments without significant egress into the cytosol (Duchardt, F. et al. (2007) Traffic 8, 848-866). […] A concentration of 10 nM siRNA is in the saturation range as determined in control experiments using the DharmaFECT transfection reagent (Dharmacon, Inc., Lafayette, Colo., USA; data not shown).
The siRNA oligonucleotides employed were directed against human Aha1 mRNA (Panaretou, B. et al. (2002) Mol. Cell 10, 1307-1318) or against luciferase mRNA as a control.
Complexes of siRNA and the respective peptides were formed in OptiMEM medium and incubated for 15 minutes at room temperature. The cells were incubated in the presence of the complexes for three hours in OptiMEM. After washing, the cells were incubated for further 21 or 45 hours in normal growth medium. Thereafter, the levels of Aha1 mRNA and a reference mRNA (i.e. GAPDH mRNA) were measured by means of a bDNA assay. These assays were performed with cells that were transfected with siAHA1 and with a control siRNA (siGL3, luciferase), respectively.
As a measure for specific RNAi, the reduction of Aha1 mRNA levels relative to GAPDH mRNA levels was compared in siAHA1-transfected cells and siGL3-transfected cells. Specific siRNA mediated transfection causes a reduction in Aha1/GAPDH mRNA values in siAhA1-compared to siGL3-transfected cells. FIG. 3 depicts the screening readout of these assays: the Aha1/GAPDH mRNA values of non-transfected control cells were set to 100% (for each assay), and the Aha1/GAPDH mRNA values of siAha1- or siGL3-transfected cells were expressed relative to that. For this normalized data set, the differences between the respective Aha1/GAPDH mRNA levels of siAha1- and siGL3-transfected cells were determined. Specific peptides caused a significant reduction in siAha1 transfection without reducing siGL3 transfections, which results in positive difference values. The more pronounced these values are, the more specific RNAi is observed (cf. FIG. 3).

MCF7 cells [1] = assay: growth inhibition/toxicity (CellTiter-Glo viability, GAPDH mRNA levels); settings: MCF7 cells; peptide 1 μM to 20 μM
Method: MCF7 cells were seeded at a density of 15.000 cells per well in 96 well plates. The cells were incubated for 24 hours at 37° C., 5% CO2 and 85% humidity in RPMI 1640 medium supplemented with 10% FCS (fetal calf serum) and L-glutamine. For functional assays, the cells were washed in OptiMEM medium and RPMI 1640 was replaced with OptiMEM (all reagents were purchased from Invitrogen Corporation, Carlsbad, Calif., USA). Complexes of siRNAs and peptides were formed by incubation of 100 nM siRNA with the indicated peptide concentrations in OptiMEM for 30 minutes at room temperature. The complexes were added to the cells and incubated for 3 hours. Subsequently, OptiMEM was replaced with normal RPMI 1640 growth medium. The cells were incubated for further 21 hours for generating bDNA lysates, and for further 45 hours for performing CellTiter-Glo or CytoTox-Glo assays (cf. below).
In order to measure the number of living cells the CellTiter-Glo Luminescent Cell Viability Assay (Promega Corporation, Madison, Wis., USA) was used according to the protocol of the manufacturer. The cells were incubated for 48 hours in the presence of peptides and siRNAs. Subsequently, the cells are lysed, and a luminescent signal proportional to the amount of ATP present is generated which, in turn, is proportional to the number of living cells present. Luminescence was analyzed in an InfiniteF200 luminescence reader.
Based on this observation, GAPDH mRNA levels were used as a general readout for toxicity: an average measurement of 100% GAPDH mRNA relative to the medium control was considered as non-toxic, values between 99% and 70% as moderate toxic, and values of less than 70% as toxic (cf. FIG. 3).
Similarly, peptides resulting in GAPDH mRNA values >70% were classified as “nontoxic”, whereas peptides that caused a reduction of GAPDH mRNA to lesser values were termed “toxic”.

MCF7 cells [2] = assay: FACS analysis of internalization of FITC-labeled peptides; assay type: cell-based, human; settings: FITC-labeled peptide 1, 5, 10 μM; 3 hours at 37° C.; proteinase K treated
Method: For FACS analysis, MCF7 cells (ATCC number HTB-22) were detached by 15 min incubation in accutase (an enzyme solution having proteolytic and collagenolytic activities; commercially available from various suppliers). After washing in FACS buffer (PBS containing 5% FCS), the cells were seeded in a 96 well, rounded bottom multi-well plate (Cat. No. 3799, Corning Inc., Corning, N.Y. USA) in a final density of 3×10^5 cells/ml and used immediately. The cells were incubated in the respective presence of 1 μM, 5 μM and 10 μM FITC-labeled peptides in OptiMEM medium for 3 hours at 37° C. Afterwards, the cells were washed in FACS buffer and incubated in proteinase K (0.02 mg/ml) containing buffer for 30 minutes at 37° C. The cells were washed twice and analyzed with the FACSCanto II (BD Biosciences; San Jose, Calif., USA) using the FITC channel.
For determining the internalization behavior of the CPPs identified in the screening procedures FITC-labeled derivates of said peptides (at 1 μM, 5 μM, and 10 μM, respectively) were analyzed by means of FACS. The following peptides were used: NRTN as a transfecting peptide, WNT16 as a non-transfecting peptide, FALL as a toxic peptide and TAT as a reference (positive control) (cf. FIG. 12). MCF7 cells were incubated in the presence of the fluorescent peptide derivatives for 3 hours at 37° C. in OptiMEM. Subsequently, the cells were treated with proteinase K for 30 minutes at 37° C. to remove surface bound peptides, and thus to ensure the monitoring only of internalized peptides. The cells were then washed in PBS and analyzed by FACS.

[3] = test system: MCF-7 human breast cancer cells; assay: cell viability/apoptosis after 24 h exposure to pro-apoptotic peptides and CPP fusions; assay type: cell-based; settings: MCF-7 cells; for cell viability / cytotoxicity due to induction of apoptosis: 20 μM; for cell viability / induction of apoptosis: various concentrations
Method: MCF-7 human breast cancer cells were incubated for 24 h in the presence of various concentrations of NRTN (squares), Nur (circles), and NurNRTN (triangles) peptides. The respective amino acid sequences are given in the bottom panel. The experimental approach for assessing cell viability (and thus induction of apoptosis) was the same as in FIG. 3.
MCF-7 human breast cancer cells were incubated for 24 h in the presence of various concentrations of 4E-BP1 (circles), TAT4E-BP1 (squares), and NRTN4E-BP1 (triangles) peptides (top panel). […] The respective amino acid sequences are given in the bottom panel. The experimental approach for assessing cell viability (and thus induction of apoptosis) was the same as in FIG. 3.
Luminescence was analyzed in an InfiniteF200 luminescence reader.
Then, the cells were treated with a luminogenic peptide substrate in order to measure dead-cell protease activity, which is released from cells that have lost membrane integrity. […] The luminescence of this assay therefore represents dead cells. The 96 well plates were then analyzed in an InfiniteF200 luminescence reader.
Despite its proven ability to convert BCL-2 into a pro-apoptotic molecule, addition of the latter peptide (i.e. “Nor/Nur”; SEQ ID NO: 72) to cancer cells, even in high concentrations, is not sufficient to induce apoptosis, as the cellular target protein is located in the cytoplasm, but the peptide per se cannot effectively penetrate through the cell membrane to reach the target. In brief, MCF-7 breast cancer cells were incubated in the presence of this peptide for 24 h.
Subsequently, it was evaluated whether the NurNRTN fusion peptide is capable of penetrating cellular membranes and thereby induces pro-apoptotic activity within cells. MCF-7 human breast cancer cells were used as a model. The experimental approach was as described above (cf. Example 1). […] This effect was dose dependent: cytotoxicity increased with increasing concentrations of peptide.
Subsequently, it was evaluated whether the NRTN4E-BP1 fusion peptide is capable of penetrating cellular membranes and thereby induces pro-apoptotic activity within cells. MCF-7 human breast cancer cells were used as a model. The experimental approach was as described above (cf. Example 1). […] This effect was dose dependent: cytotoxicity increased with increasing concentrations of peptide.

PROK2: candidate peptide displaying the highest similarity with TAT (LTRKNNFGNGRQERRKRKRSKRKKEVPFFG; PROK2 peptide sequence; listed as Homo sapiens)
siRNA transfection activity (specific Aha1 mRNA reduction relative to GAPDH mRNA) (human Aha1 mRNA; MCF7 cells, 100 nM siRNA, peptide 1 μM to 20 μM): did not show detectable transfection activity

FALLGDFFRKSKEKIGKEFKRIVQRIKDFLRNLVPRTES (FALL39 Var.1 peptide sequence; listed as Homo sapiens) [peptide derived from the human protein cathelicidine]
specific reduction of Aha1 mRNA at lower concentrations (human Aha1 mRNA; 5 μM peptide): clear and specific reduction of Aha1 mRNA | specific Aha1 mRNA reduction (relative to GAPDH mRNA) where toxicity is pronounced (human Aha1 mRNA; 10 μM or higher): only inconclusive evidence for a specific Aha1 mRNA reduction | transfection efficacy compared with TAT / control peptides (human Aha1 mRNA; NRTN: at lower non-toxic concentrations): inferior transfection efficacy than TAT | cell viability / growth inhibition / toxicity (CellTiter-Glo, GAPDH mRNA levels) (MCF7 cells [1]): significant toxicity | internalization into cells (FACS, FITC channel) (MCF7 cells [2]): strong accumulation

CC[C@H](C)[C@H](NC(=O)[C@H](CCCNC(=N)N)NC(=O)[C@@H](NC(=O)CNC(=O)[C@H](CCCNC(=N)N)NC(=O)[C@H](CCCNC(=N)N)NC(=O)[C@H](CCCNC(=N)N)NC(=O)[C@H](CCC(N)=O)NC(=O)[C@H](CCCNC(=N)N)NC(=O)[C@H](CCCNC(=N)N)NC(=O)[C@H](CCCCN)NC(=O)[C@H](CCCCN)NC(=O)[C@H](CCCNC(=N)N)NC(=O)CNC(=O)[C@H](Cc1ccc(O)cc1)NC(=O)CCOCCOCCOCCNC(=O)[C@@H](N)CS)[C@@H](C)O)C(=O)N[C@H](C(=O)NCC(=O)N[C@@H](CC(=O)O)C(=O)NCC(=O)N[C@@H](CCCCN)C(=O)N[C@@H](Cc1ccccc1)C(=O)NCC(=O)N[C@@H](CCSC)C(=O)N[C@@H](CCC(=O)O)C(=O)N[C@@H](CS)C(=O)N[C@@H](CCCNC(=N)N)C(=O)N[C@@H](CC(N)=O)C(=O)N[C@@H](CO)C(=O)N1CCC[C@H]1C(=O)N[C@H](C(=O)N[C@H](C(=O)O)[C@@H](C)O)C(C)C)[C@@H](C)CC [TATinact4E-BP1, reference compound]
cell viability / cytotoxicity due to induction of apoptosis [3]: completely inactive

GAAEAAARVYDLGLRRLRQRRRLRRERVRAGTRIIYDRKFLMECRNSPVT [NRTN4E-BP1]
potency compared to TAT-fused counterpart [3]: significantly higher potency | cell viability / induction of apoptosis [3]: remarked cytotoxicity

CC[C@H](C)[C@H](NC(=O)[C@H](CCCNC(=N)N)NC(=O)[C@@H](NC(=O)CNC(=O)[C@H](CCCNC(=N)N)NC(=O)[C@H](CCCNC(=N)N)NC(=O)[C@H](CCCNC(=N)N)NC(=O)[C@H](CCC(N)=O)NC(=O)[C@H](CCCNC(=N)N)NC(=O)[C@H](CCCNC(=N)N)NC(=O)[C@H](CCCCN)NC(=O)[C@H](CCCCN)NC(=O)[C@H](CCCNC(=N)N)NC(=O)CNC(=O)[C@H](Cc1ccc(O)cc1)NC(=O)CCOCCOCCOCCNC(=O)[C@@H](N)CS)[C@@H](C)O)C(=O)N[C@H](C(=O)N[C@@H](Cc1ccc(O)cc1)C(=O)N[C@@H](CC(=O)O)C(=O)N[C@@H](CCCNC(=N)N)C(=O)N[C@@H](CCCCN)C(=O)N[C@@H](Cc1ccccc1)C(=O)N[C@@H](CC(C)C)C(=O)N[C@@H](CCSC)C(=O)N[C@@H](CCC(=O)O)C(=O)N[C@@H](CS)C(=O)N[C@@H](CCCNC(=N)N)C(=O)N[C@@H](CC(N)=O)C(=O)N[C@@H](CO)C(=O)N1CCC[C@H]1C(=O)N[C@H](C(=O)N[C@H](C(=O)O)[C@@H](C)O)C(C)C)[C@@H](C)CC [TAT4E-BP1, reference compound]
cell viability / cytotoxicity due to induction of apoptosis [3]: clear evidence for reduction in cell viability and cytotoxicity

GAAEAAARVYDLGLRRLRQRRRLRRERVRAGTRIIGDGKFGMECRNSPVT (inactive NRTN4E-BP1 peptide sequence) [NRTNinact4E-BP1]
cell viability / induction of apoptosis [3]: inactive

FSRSLHSLLVDL (C-terminal Nor1 peptide sequence; listed as Homo sapiens) [Nor/Nur, reference compound]
cell viability / induction of apoptosis [3]: No reduction in cell viability or induction of apoptosis was observed

GTRIIYDRKFLMECRNSPVT [4E-BP1, reference compound]
cell viability / induction of apoptosis [3]: No reduction in cell viability or induction of apoptosis was observed
